“Also recorded” adds a separate entry of the source. Read-outs that look alike come from different tables or passages of the source.
How the values were obtained:
Human CB1 receptor [1] = target: T1, Human CB1 receptor (Homo sapiens, UniProt P21554); test: Radioligand binding assay vs [3H]CP55,940, membranes of CHO cells expressing human CB1; conditions: CHO cell membranes
Experimental: (§1) Radioligand b inding assays at CB1 and CB 2 receptors
(§2) Competition binding assays were performed using the CB receptor agonist radioligand [3H](−)- cis-3-[2-hydroxy-4-(1,1-dimethylheptyl)phenyl]-trans-4-(3-hydroxypropyl)-cyclohexanol as previously described [S1]. Briefly, membrane preparations of Chinese hamster ovary (CHO) cells stably expressing human CB1 or CB2 receptor were used (30 μg of protein/well for CB1 and 16 µg of protein/well for CB2-receptor preparations). All stock solutions of test compounds ([…]) were prepared in DMSO. After 2 h of incubation, a mixture containing 15 μL of the […]
(§3) mM MgCl2, 0.1% BSA, pH 7.4), 60 μL of membrane preparation (in 50 mM TRIS buffer) and 465 μL of assay buffer, were filtered through GF/C glass fiber filters (presoaked for 0.5 h in 0.3% aq. polyethyleneimine solution), using a Brandel 96-channel cell harvester (Brandel, Gaithersburg, MD). Radioactivity on the filters was then measured in a liquid scintillation counter (Topcount NXT, Packard/Perkin-Elmer) after 10 h of preincubation with 50 µl of scintillation cocktail (Multiscint 25, Perkin-Elmer). […]

Human CB2 receptor [2] = target: T2, Human CB2 receptor (Homo sapiens, UniProt P34972); test: Radioligand binding assay vs [3H]CP55,940, membranes of CHO cells expressing human CB2; set-up: expressed in transfected cells; membrane preparations; conditions: CHO cell membranes
T2 sequence (P34972 whole entry): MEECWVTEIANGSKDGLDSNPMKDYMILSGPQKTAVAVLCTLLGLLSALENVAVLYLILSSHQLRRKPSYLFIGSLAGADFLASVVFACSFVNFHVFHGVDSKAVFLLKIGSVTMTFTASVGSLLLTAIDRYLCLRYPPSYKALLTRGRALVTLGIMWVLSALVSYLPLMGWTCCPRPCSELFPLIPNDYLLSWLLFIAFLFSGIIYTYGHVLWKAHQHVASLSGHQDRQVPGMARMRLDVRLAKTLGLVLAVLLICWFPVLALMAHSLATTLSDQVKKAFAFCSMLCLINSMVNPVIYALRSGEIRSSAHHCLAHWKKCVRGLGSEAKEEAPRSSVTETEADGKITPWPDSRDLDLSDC
Experimental: as §1, §2, §3

Human CB1 receptor [3] = target: T1, Human CB1 receptor; test: Trupath BRET2 functional assay in HEK293 cells transfected with human CB1; type: cell-based; set-up: expressed in transfected cells; host or cells: HEK293 cells, transient transfection (Lipofectamine 2000); receptor in pcDNA3.1(+); Trupath plasmids Addgene kit #1000000163; conditions: for agonistic activity at human CB1: agonist mode, BRET2; for IC50: read-out: IC50, blockade of CB1 receptor activation
Experimental: (§4) Functional assays at CB1 and CB2 receptors
(§5) Functional assays of the selected compounds were assessed using the Trupath BRET 2 assay system as recently described [S2]. The Trupath plasmids were a gift from Bryan Roth’s Laboratory (Addgene kit #1000000163). Briefly, HEK293 cells were seeded in a 6 well-plate at adensity of 700.000 cells/well and incubated for 4h. Plasmids containing Gαi1-Rluc8, ß3 and γ9-GFP2 and either human CB 1 or CB2 in pcDNA3.1(+) at a ratio of 1:1:1:1 were mixed with Lipofectamine 2000 and transfected according to the manufacturer’s protocol. The cells were further incubated overnight, then harvested and seeded at a density of 40.000 cells/well in 96 well-plates with full growth medium, and cultured for another 24h. On the day of the […]
(§6) culture medium was carefully discarded and replaced by 60 µL of HBSS-HEPES buffer, followed by the addition of 10 µL of 50 µM Coelenterazine 400a. For testing of agonistic activity, the test compounds were added to the wells in a volume of 30 µL and incubated for 5 min. For antagonist testing, compounds were added in a volume of 15 µL, incubated for 5 min, […]
(§7) incubated for another 5 min. Test compounds were dissolved in DMSO and the final DMSO concentration in the assays was 1%. Finally, the signal was measured using a Mitras LB400 according to previously published literature[S3]. Data were obtained from 3-4independent experiments performed in duplicate.

Human CB2 receptor [4] = target: T2, Human CB2 receptor; test: Trupath BRET2 functional assay in HEK293 cells transfected with human CB2; type: cell-based; set-up: expressed in transfected cells; host or cells: HEK293 cells, transient transfection (Lipofectamine 2000); receptor in pcDNA3.1(+); Trupath plasmids Addgene kit #1000000163; conditions: for agonistic activity at human CB2: agonist mode, BRET2
Experimental: as §4, §5, §6, §7

Human CB1 receptor [5] = target: T1, Human CB1 receptor; set-up: method as in PMID 7565624; conditions: previously reported; cited from earlier work
CB1 receptors = system: CB1 receptors; set-up: method as in PMID 19286662; conditions: previously shown; cited from earlier work
Human CB2 receptor [6] = target: T2, Human CB2 receptor; set-up: expressed in transfected cells; membrane preparations; method as in PMID 7565624; conditions: previously reported; cited from earlier work
control HEK293 cells = test: Trupath BRET2 assay in control HEK293 cells transfected with only Gαi1-Rluc8, ß3 and γ9-GFP2; type: cell-based; conditions: cells without CB receptor

T1 sequence (P21554 whole entry): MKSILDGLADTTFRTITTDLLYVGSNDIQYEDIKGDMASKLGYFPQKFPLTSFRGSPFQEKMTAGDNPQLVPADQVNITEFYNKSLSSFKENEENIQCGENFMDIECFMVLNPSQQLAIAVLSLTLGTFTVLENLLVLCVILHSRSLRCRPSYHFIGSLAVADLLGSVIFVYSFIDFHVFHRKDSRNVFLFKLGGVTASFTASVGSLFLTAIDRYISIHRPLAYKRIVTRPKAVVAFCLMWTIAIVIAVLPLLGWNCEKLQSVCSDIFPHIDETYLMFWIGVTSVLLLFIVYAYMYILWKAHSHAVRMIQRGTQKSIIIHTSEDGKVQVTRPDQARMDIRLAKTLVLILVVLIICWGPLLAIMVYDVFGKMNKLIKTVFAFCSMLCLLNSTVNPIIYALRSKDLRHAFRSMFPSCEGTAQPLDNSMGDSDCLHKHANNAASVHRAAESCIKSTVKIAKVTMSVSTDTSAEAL

SMILES | Ki (Human CB1 receptor [1]) | Ki (Human CB2 receptor [2]) | further results
Fc1cc2[nH]cc(C(c3ccccc3)(c3c[nH]c4ccccc34)C(F)(F)F)c2cc1F (stereo not shown) [3n] | 2.04 ± 0.08 µM | 6.14 ± 0.13 µM | 
COc1ccc2[nH]cc(C(c3ccccc3)(c3c[nH]c4ccccc34)C(F)(F)F)c2c1 (stereo not shown) [3a, 5-methoxy-3-(2,2,2-trifluoro-1-(1H-indol-3-yl)-1-phenylethyl)-1H-indole] | 4.23 ± 0.03 µM | 6.04 ± 0.11 µM | 
c1ccc2c(Cc3c[nH]c4ccccc34)c[nH]c2c1 [I, diindolylmethane] |  |  | Ki (Human CB1 receptor [5]): 4.3 µM; functional activity at CB1 receptors (CB1 receptors): weak inverse agonist; Ki (Human CB2 receptor [6]): 1.1 µM
COc1ccc2[nH]cc(C(c3ccccc3)(c3c[nH]c4c(Br)cccc34)C(F)(F)F)c2c1 (stereo not shown) [3g] | 4.02 ± 0.22 µM | 4.62 ± 0.33 µM | 

Further lines, with some results ahead:

Ki (Human CB1 receptor [1]) | Ki (Human CB2 receptor [2]) | SMILES | further results
3.21 ± 0.25 µM | 4.47 ± 0.12 µM | COc1ccc2[nH]cc(C(c3ccccc3)(c3c[nH]c4cc(F)ccc34)C(F)(F)F)c2c1 (stereo not shown) [3e] | inverse agonistic activity (effect on basal activity) at CB1 (Human CB1 receptor [3]; BRET2, HEK293): reduced the basal activity; also recorded: inverse agonistic activity; agonistic activity at human CB1 (Human CB1 receptor [3]): no agonistic activity; IC50 (Human CB1 receptor [3]): 5.68 ± 0.54 µM; EC50 (Human CB1 receptor [3]; reduction of basal activity, BRET2, HEK293, read-out: EC50, inverse agonist at CB1 receptors): 0.786 ± 0.233 µM; agonistic activity at human CB2 (Human CB2 receptor [4]): no agonistic activity; inhibition of CB2 receptor activation (Human CB2 receptor [4]; antagonist mode, CP55,940 at its EC80, compared with CB1): weaker
4.78 ± 1.26 µM | 9.9 ± 1.45 µM | COc1ccc2[nH]cc(C(c3ccccc3)(c3c[nH]c4cc(F)c(F)cc34)C(F)(F)F)c2c1 (stereo not shown) [3h] | 
7.64 ± 0.8 µM | 4.75 ± 0.34 µM | COc1ccc2[nH]cc(C(c3ccccc3)(c3c[nH]c4cccc(OC)c34)C(F)(F)F)c2c1 (stereo not shown) [3b] | 
1.82 ± 0.09 µM | 11.2 ± 0.5 µM | COc1ccc2[nH]cc(C(c3ccccc3)(c3c[nH]c4ccccc34)C(F)(F)C(F)(F)F)c2c1 (stereo not shown) [3ad] | effect in non-transfected control cells (control HEK293 cells): did not show any effect; inverse agonistic activity (effect on basal activity) at CB1 (Human CB1 receptor [3]; BRET2, HEK293): less pronounced; also recorded: inverse agonistic activity; agonistic activity at human CB1 (Human CB1 receptor [3]): no agonistic activity; IC50 (Human CB1 receptor [3]): 5.22 ± 0.68 µM; agonistic activity at human CB2 (Human CB2 receptor [4]): no agonistic activity

From paper PMC8218542, “Iodine-catalyzed electrophilic substitution of indoles: Synthesis of (un)symmetrical diindolylmethanes with a quaternary carbon center” (Beilstein Journal of Organic Chemistry, 2021)
